Measurements: US9822106B2, “Inhibitors of leukotriene A4 hydrolase” (Celtaxsys, Inc., priority 2013, dated 2017)
Where two headings read alike, the source gives them in different places.

Experiments:
LTA4-h [1] = target: T1, LTA4-h (Homo sapiens, UniProt P09960); assay: peptidase (aminopeptidase) assay; format: biochemical
T1 sequence (P09960 1-611): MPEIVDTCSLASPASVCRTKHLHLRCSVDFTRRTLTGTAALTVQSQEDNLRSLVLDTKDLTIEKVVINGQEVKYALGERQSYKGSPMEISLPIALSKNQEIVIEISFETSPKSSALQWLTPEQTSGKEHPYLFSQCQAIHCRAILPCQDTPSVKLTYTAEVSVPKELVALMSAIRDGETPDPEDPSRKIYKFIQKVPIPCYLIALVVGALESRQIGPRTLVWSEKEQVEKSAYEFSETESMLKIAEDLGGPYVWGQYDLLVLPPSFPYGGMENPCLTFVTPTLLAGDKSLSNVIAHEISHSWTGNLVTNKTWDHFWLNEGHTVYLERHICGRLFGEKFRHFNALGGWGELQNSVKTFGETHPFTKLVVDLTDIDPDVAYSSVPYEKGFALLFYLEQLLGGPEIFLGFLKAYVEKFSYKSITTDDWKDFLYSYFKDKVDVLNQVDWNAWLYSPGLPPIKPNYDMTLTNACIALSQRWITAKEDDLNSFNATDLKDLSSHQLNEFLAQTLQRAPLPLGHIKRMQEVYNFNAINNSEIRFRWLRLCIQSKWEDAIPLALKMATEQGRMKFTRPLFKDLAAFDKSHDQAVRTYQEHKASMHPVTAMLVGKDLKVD
Source text: Since LTA4-h hydrolase is grouped with the M1 family of zinc metalloproteases (see, Rudberg, P. C. et al., J. Biol. Chem. 2002, Vol. 277, page 1398-1404), the compounds of the invention can be tested in the standard hydrolase and peptidase assay to determine the compounds' kinetic constants for binding to LTA4-h hydrolase and for inhibiting LTB4 synthesis (see Askonas, L. J., et al., The Journal of Pharmacology and Experimental Therapeutics 2002, 300(2): 577-582; Penning, T. D., J. Med. Chem. 2000, 43(4): 721-735; Kull, F. et al., The Journal of Biological Chemistry 1999, 274 (49): 34683-34690, the contents of which are expressly incorporated by reference herein).
(§1) The whole blood and aminopeptidase assays were performed as described in Penning et al., J. Med. Chem. 2000, 43, 721-735, and Rudberg et al., J. Biol. Chem. Vol. 279, No. 26, Issue of June 25, pp. 27376-27382, 2004, the contents of each of which are expressly incorporated by reference herein. The hydrolase assay was performed as described in U.S. Pat. No. 7,737,145, the contents of which are expressly incorporated herein.

LTA4-h hydrolase = target: T2, LTA4-h hydrolase (Homo sapiens, UniProt P09960); assay: whole blood assay (WBA); format: cell-based; settings: read-out: IC50 WBA
T2 construct: from tissue; host or cells: whole blood
T2 sequence (P09960 1-611): T1 sequence (P09960 1-611)
Source text: Compounds of the invention can also be tested for their ability as inhibitors of LTA4-h hydrolase in the whole blood assay using human, mouse, rat or dog whole blood (see Penning, T. D. et al., J. Med. Chem. (2000), 43(4): 721-735 for a description of a human whole blood assay and a mouse whole blood assay, the contents of which are expressly incorporated herein).
as §1, with “Tables 4 to 6 below show the IC50 values for peptidase, hydrolase and whole blood assay (WBA) activity for exemplary compounds encompassed by the invention. The whole” for “The whole”

LTA4-h [2] = target: T1, LTA4-h; assay: hydrolase assay (hydrolase-homogeneous time resolved fluorescence); format: biochemical
Source text: The compounds of the invention can be tested for their ability to inhibit LTA4-h by various known assays and by assays described herein. For example, the compounds can be tested for their ability to inhibit LTA4-h activity by assaying the compounds in the hydrolase-homogeneous time resolved fluoroescence assay. This assay, which is a two-step assay, measures the hydrolysis of […] to LTB4 by analyzing the amount of LTB4 produced. The first step involves the enzymatic conversion of […] to LTB4 and the second step involves the quantification of the […] with a homogeneous time resolved fluoroescence assay.
as §1, with “Tables 4 to 6 below show the IC50 values for peptidase, hydrolase and whole blood assay (WBA) activity for exemplary compounds encompassed by the invention. The whole” for “The whole”

colitis = settings: eight weeks of treatment; cotton top tamarins; cited from earlier work
[3] = system: ionophore-induced LTB4 production; settings: oral administration; rat peritoneum in vivo; cited from earlier work
[4] = system: ionophore-induced LTB4 production; settings: oral administration; mouse blood ex vivo; cited from earlier work

Structure (SMILES)	IC50 (LTA4-h [1]) [nM]	IC50 (LTA4-h hydrolase) [nM]	IC50 (LTA4-h [2]) [nM]	also measured
O=C(O)C1CCCN(c2ccc(CNCc3ccc(Oc4ccc(Cl)cc4)cc3)cn2)C1 (stereo not drawn) [Compound 22]	3.9	32	4.8	
COCCN(Cc1ccc(Oc2ccc(Cl)cc2)cc1)Cc1ccc(N2CCCC(C(=O)O)C2)nc1 (stereo not drawn) [Compound 23]	85	470	700	
CN(Cc1ccc(Oc2ccc(Cl)cc2)cc1)Cc1ccc(N2CCCC(C(=O)O)C2)nc1 (stereo not drawn) [Compound 24]	28		150	
O=C(O)C1CCCN(c2ccc(CNCc3ccc(Oc4ccc(-c5ncco5)cc4)cc3)cn2)C1 (stereo not drawn) [Compound 25]	13	55	3	
CN(Cc1ccc(Oc2ccc(-c3ncco3)cc2)cc1)Cc1ccc(N2CCCC(C(=O)O)C2)nc1 (stereo not drawn) [Compound 26]	33	180	85	
CN(Cc1ccc(Oc2ccc(Cl)cc2)cc1)Cc1ccc(N2CCCC(C(=O)O)C2)nc1 (stereo not drawn) [Compound 27]	48	510	320	
C=CCOc1ccc(CNCc2ccc(N3CCCC(C(=O)O)C3)nc2)cc1 (stereo not drawn) [Compound 28]	73	1000	260	
O=C(O)C1CCCN(c2ccc(CNCc3ccc(Oc4nc5ccccc5s4)cc3)cn2)C1 (stereo not drawn) [Compound 29]	4	160		
O=C(O)C1CCCN(c2ccc(CNCc3ccc(Oc4nc5ccccc5s4)cc3)cn2)C1 (stereo not drawn) [Compound 30]	5	120	1	
O=C(O)C1CCCN(c2ccc(CNCc3ccc(OC/C=C/c4ccccc4)cc3)cn2)C1 (stereo not drawn) [Compound 31]	42	230	9	
CC(C)=CCOc1ccc(CNCc2ccc(N3CCCC(C(=O)O)C3)nc2)cc1 (stereo not drawn) [Compound 32]	10		37	
O=C(O)C1CCCN(c2ccc(CNCc3ccc(Oc4ccc5c(c4)OCO5)cc3)cn2)C1 (stereo not drawn) [Compound 33]	8		8	
O=C(O)C1CCCN(c2ccc(CNCc3ccc(Oc4ncccn4)cc3)cn2)C1 (stereo not drawn) [Compound 34]	13		86	
O=C(O)C1CCCN(c2ccc(CNCc3ccc(OCc4ccc(Cl)cc4)cc3)cn2)C1 (stereo not drawn) [Compound 35]	45		110	
O=C(O)C1CCCN(c2ccc(CNCc3ccc(Oc4cnc5ccccc5n4)cc3)cn2)C1 (stereo not drawn) [Compound 36]	7		19	
O=C(O)[C@H]1CCCN(c2ccc(CNCc3ccc(Oc4cnc5ccccc5n4)cc3)cn2)C1 [Compound 37]	12			
O=C(O)[C@@H]1CCCN(c2ccc(CNCc3ccc(Oc4cnc5ccccc5n4)cc3)cn2)C1 [Compound 38]	16			
O=C(O)C1CCCN(c2ccc(CNCc3ccc(Oc4ccc5cc(Cl)ccc5n4)cc3)cn2)C1 (stereo not drawn) [Compound 39]	170			
O=C(O)C1CCCN(c2ccc(CNCc3ccc(Oc4ccc(CCO)cc4)cc3)cn2)C1 (stereo not drawn) [Compound 40]	21			
O=C(O)c1ccc(CNc2ccc(Oc3ccc(Cl)cc3)cc2)cc1 [Compound 42]	850	> 3000		inhibition at 3 µM (LTA4-h [2]; at 3 uM): 0%
CN(CCCOc1ccc(Cc2ccccc2)cc1)CCC(=O)O.Cl [SC57461]				colitis symptoms (colitis): significantly improved colitis symptoms; inhibition of ionophore-induced LTB4 production [3]: caused inhibition; inhibition of ionophore-induced LTB4 production [4]: caused inhibition
